Reference: PMC3981466 (Bioorganic & medicinal chemistry letters, 2013)
Read-outs that look alike come from different tables or passages of the source.

Key:
E. coli SPase = E. coli SPase (Escherichia coli, UniProt P00803); assay: Biochemical activity
S. aureus SPase = S. aureus SPase (Staphylococcus aureus, UniProt P0A070); assay: Biochemical activity
[1] = test system: S. aureus (MSSA) strain 8325; conditions: wild type MSSA strain 8325; included for reference; cited from earlier work
[2] = test system: methicillin resistant S. aureus (MRSA) strain USA300; conditions: included for reference, cited from earlier work
E. coli (MG1655) = conditions: wild type MG1655; included for reference; cited from earlier work

Chain of S. aureus SPase (P0A070 whole entry): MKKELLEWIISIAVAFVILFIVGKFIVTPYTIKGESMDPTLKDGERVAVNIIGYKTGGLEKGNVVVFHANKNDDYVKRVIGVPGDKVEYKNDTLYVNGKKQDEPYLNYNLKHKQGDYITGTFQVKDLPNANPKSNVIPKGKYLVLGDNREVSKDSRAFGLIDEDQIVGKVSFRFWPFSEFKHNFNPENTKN
Chain of E. coli SPase (P00803 whole entry): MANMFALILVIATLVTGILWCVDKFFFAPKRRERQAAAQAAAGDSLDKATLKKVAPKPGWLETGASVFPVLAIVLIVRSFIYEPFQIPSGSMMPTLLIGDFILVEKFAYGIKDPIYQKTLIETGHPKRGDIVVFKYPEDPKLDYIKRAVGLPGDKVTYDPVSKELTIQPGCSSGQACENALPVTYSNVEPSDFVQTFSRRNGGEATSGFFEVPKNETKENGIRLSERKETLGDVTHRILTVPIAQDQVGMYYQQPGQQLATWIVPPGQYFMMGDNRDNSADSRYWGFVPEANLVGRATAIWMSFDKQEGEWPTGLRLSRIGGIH

With `CCCCCCCCCCCCCCCC(=O)N(C)[C@H](CO)C(=O)N[C@H](C)C(=O)NCC(=O)N(C)[C@@H]1C(=O)N[C@@H](C)C(=O)N[C@H](C(=O)NCP(=O)(O)O)Cc2ccc(O)c(c2)-c2cc1ccc2O` [Compound 1] the “loss of activity relative to parent arylomycin A-C16” value (E. coli SPase) was ~ 10 fold and the “loss of activity relative to parent arylomycin A-C16” value (S. aureus SPase) was ~ 10 fold.

For `CCCCCCCCCCCCCCCC(=O)N(C)[C@H](CO)C(=O)N[C@H](C)C(=O)NCC(=O)N(C)[C@@H]1C(=O)N[C@@H](C)C(=O)N[C@H](C(=O)NCP(=O)(Oc2ccccc2)Oc2ccccc2)Cc2ccc(O)c(c2)-c2cc1ccc2O` [Compound 4], the “change of affinity/activity relative to parent, in words” value (E. coli SPase) was “lost virtually all affinity” and the “change of affinity/activity relative to parent, in words” value (S. aureus SPase) was “lost virtually all affinity”.

With `CCCCCCCCCCCCCCCC(=O)N(C)[C@H](CO)C(=O)N[C@H](C)C(=O)NCC(=O)N(C)[C@@H]1C(=O)N[C@@H](C)C(=O)N[C@H](C(=O)NCC=O)Cc2ccc(O)c(c2)-c2cc1ccc2O` [Compound 5] the “more potent than arylomycin A-C16” value (E. coli SPase) was 5 fold and the “more potent than arylomycin A-C16” value (S. aureus SPase) was 40 fold.

With `CCCCCCCCCCCCCCCC(=O)N(C)[C@H](CO)C(=O)N[C@H](C)C(=O)NCC(=O)N(C)[C@@H]1C(=O)N[C@@H](C)C(=O)N[C@H](CC(=O)NCC=O)Cc2ccc(O)c(c2)-c2cc1ccc2O` [Compound 6] the “change of affinity/activity relative to parent, in words” value (E. coli SPase) was “lost virtually all activity” and the “change of affinity/activity relative to parent, in words” value (S. aureus SPase) was “lost virtually all activity”.

With `CCCCCCCCCCCCCCCC(=O)N(C)[C@H](CO)C(=O)N[C@H](C)C(=O)NCC(=O)N(C)[C@@H]1C(=O)N[C@@H](C)C(=O)N[C@H](C(=O)O)Cc2ccc(O)c(c2)-c2cc1ccc2OP(=O)(O)O` [Compound 7] the “IC50 difference relative to arylomycin A-C16” value (E. coli SPase) was no more than 2 fold and the “IC50 difference relative to arylomycin A-C16” value (S. aureus SPase) was no more than 2 fold.

For `CCCCCCCCCCCCCCCC(=O)N(C)[C@H](CO)C(=O)N[C@H](C)C(=O)NCC(=O)N(C)[C@@H]1C(=O)N[C@@H](C)C(=O)N[C@H](C(=O)NCC=O)Cc2ccc(O)c(c2)-c2cc1ccc2OP(=O)(OCc1ccccc1)OCc1ccccc1` [Compound 8], the “lower affinity on the glycyl aldehyde backbone” value (E. coli SPase; Hpg modification on glycyl aldehyde scaffold (of 5)) was 15 fold.

For `CCCCCCCCCCCCCCCC(=O)N(C)[C@H](CO)C(=O)N[C@H](C)C(=O)NCC(=O)N(C)[C@@H]1C(=O)N[C@@H](C)C(=O)N[C@H](C(=O)O)Cc2ccc(O)c(c2)-c2cc1ccc2OCCN` [Compound 9], the “IC50 difference relative to arylomycin A-C16” value (E. coli SPase) was no more than 2 fold and the “IC50 difference relative to arylomycin A-C16” value (S. aureus SPase) was no more than 2 fold.

For `CCCCCCCCCCCCCCCC(=O)N(C)[C@H](CO)C(=O)N[C@H](C)C(=O)NCC(=O)N(C)[C@@H]1C(=O)N[C@@H](C)C(=O)N[C@H](C(=O)O)Cc2ccc(O)c(c2)-c2cc1ccc2OCCO` [Compound 11], the “IC50 difference relative to arylomycin A-C16” value (E. coli SPase) was no more than 2 fold and the “IC50 difference relative to arylomycin A-C16” value (S. aureus SPase) was no more than 2 fold.

For `CCCCCCCCCCCCCCCC(=O)N(C)[C@H](CO)C(=O)N[C@H](C)C(=O)NCC(=O)N(C)[C@@H]1C(=O)N[C@@H](C)C(=O)N[C@H](C(=O)O)Cc2ccc(O)c(c2)-c2cc1ccc2O` [arylomycin A-C16], the “MIC S. aureus” value [1] is listed as greater than 64 µg/mL, the “MIC MRSA” value ([2]; listed as A-C16) is listed as greater than 64 µg/mL and the “MIC MRSA” value [2] is listed as “no detectable activity”. For the same molecule, the “MIC E. coli” value (E. coli (MG1655)) was greater than 64 µg/mL.
